The term GI50 denotes the concentration giving 50% growth inhibition. In general, TGI refers to the concentration at which net growth stops. High values mean less potent growth arrest, low ones more potent growth arrest.

From PubChem BioAssay (NCI) come the findings set out here.

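Where inhibition never reached the appropriate level, the endpoint shown equals the highest concentration tested. Otherwise, values were interpolated linearly from a five-concentration, 48-hour dose response in 96-well plates. Abbreviation: GI50, concentration required for 50% inhibition of growth. TGI: total growth inhibition.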 Some results are limits rather than exact numbers.

Some test systems named below: SR leukemia; HCC-2998 colon; SK-MEL-5 melanoma; SW-620 colon; K-562 leukemia; SF-539 CNS; UACC-257 melanoma; CCRF-CEM leukemia.
What all share (assay): DTP human tumour cell line panel, 48 h

Turning to `NC1CCC(Nc2nc(NCc3cc(Cl)ccc3O)c3ncn(C4CCCC4)c3n2)CC1` (stereo unspecified), the concentration for 50% growth inhibition (GI50) in the assay with SR leukemia was 0.0422 µM; in the assay on HCC-2998 colon, 0.201 µM; in the assay with SK-MEL-5 melanoma, 0.175 µM; in the assay on SW-620 colon it was 0.15 µM; with K-562 leukemia it was 0.175 µM; in the assay on SF-539 CNS, 0.166 µM. Also, the 50% growth inhibitory concentration (GI50) in the assay on UACC-257 melanoma is 0.18 µM; in the assay with CCRF-CEM leukemia it was 0.127 µM. The total growth inhibition concentration (TGI) with SR leukemia is 0.237 µM; in the assay on HCC-2998 colon, 0.603 µM; in the assay with SK-MEL-5 melanoma, 0.325 µM; with SW-620 colon, 0.922 µM; in the assay with K-562 leukemia, 0.461 µM; in the assay with SF-539 CNS it was 0.341 µM. Moreover, the total growth inhibition concentration (TGI) worked out at 0.387 µM in the assay with UACC-257 melanoma and 0.532 µM in the assay with CCRF-CEM leukemia.
As to `O=C1CCCCC=C1C[N+](=O)[O-]`, the GI50 was 3.7 µM in the assay with SR leukemia; 20.5 µM in the assay on HCC-2998 colon; 26.9 µM in the assay with SK-MEL-5 melanoma; 5.9 µM in the assay with SW-620 colon; 22.5 µM in the assay with K-562 leukemia; 27.7 µM in the assay with SF-539 CNS. Besides, the GI50 in the assay with UACC-257 melanoma was 28.6 µM; with CCRF-CEM leukemia it was 5.7 µM. Further, the concentration for total growth inhibition (TGI) with SR leukemia is 12.3 µM; with HCC-2998 colon, 43.6 µM; in the assay on SK-MEL-5 melanoma it was 74.3 µM; in the assay with SW-620 colon it was 26.1 µM; in the assay with K-562 leukemia, greater than 100 µM; with SF-539 CNS it was 74.2 µM. The total growth inhibition concentration (TGI) is greater than 100 µM in the assay on UACC-257 melanoma and 23.3 µM in the assay with CCRF-CEM leukemia.
In the case of `COc1cc2nc(-c3ccc(Cl)cc3)cc(OCCCN3CCCC3)c2cc1OC`, the GI50 is 0.251 µM with SR leukemia; 1.86 µM with HCC-2998 colon; 0.961 µM in the assay on SK-MEL-5 melanoma; 3.12 µM in the assay with SW-620 colon; 1.06 µM in the assay with K-562 leukemia; 2.44 µM in the assay on SF-539 CNS. Further, the GI50 is 1.96 µM with UACC-257 melanoma and 2.14 µM in the assay with CCRF-CEM leukemia. Besides, the TGI stood at 1.38 µM in the assay on SR leukemia; 6.01 µM in the assay on HCC-2998 colon; 2.16 µM in the assay on SK-MEL-5 melanoma; 13.1 µM in the assay with SW-620 colon; 4.68 µM with K-562 leukemia; 8.07 µM in the assay with SF-539 CNS. Also, the TGI with UACC-257 melanoma is 4.87 µM; in the assay on CCRF-CEM leukemia, 7.09 µM.
For `O=C(c1ccco1)c1c(C(F)(F)F)nc2ccc(C(F)(F)F)cc2[n+]1[O-]`, the GI50 is greater than 91.7 µM with SR leukemia; 57.6 µM in the assay with HCC-2998 colon; 31.4 µM with SK-MEL-5 melanoma; greater than 59.1 µM with SW-620 colon; greater than 73.8 µM with K-562 leukemia; 18.3 µM in the assay with SF-539 CNS. The GI50 in the assay on UACC-257 melanoma was greater than 52.6 µM. For the same compound, the total growth inhibition concentration (TGI) in the assay on SR leukemia is greater than 100 µM; in the assay on HCC-2998 colon, greater than 100 µM; in the assay on SK-MEL-5 melanoma, greater than 67.1 µM; in the assay with SW-620 colon, greater than 100 µM; in the assay with K-562 leukemia, greater than 100 µM; in the assay on SF-539 CNS it was 34.5 µM. Moreover, the TGI in the assay with UACC-257 melanoma was greater than 85.9 µM; with CCRF-CEM leukemia, greater than 49.4 µM.
Take `O=C1C(Nc2ccc(Br)cc2)=C(I)C(=O)c2ncccc21`: the GI50 in the assay on SR leukemia is 0.314 µM; in the assay with HCC-2998 colon, 3.22 µM; with SK-MEL-5 melanoma, 0.803 µM; with SW-620 colon, 0.531 µM; in the assay with K-562 leukemia, 0.499 µM; in the assay with SF-539 CNS, 1.03 µM. The GI50 in the assay on UACC-257 melanoma was 0.835 µM; with CCRF-CEM leukemia, 0.859 µM. Also, the TGI with SR leukemia was 2.42 µM; in the assay with HCC-2998 colon it was 10.4 µM; in the assay on SK-MEL-5 melanoma, 1.51 µM; in the assay on SW-620 colon it was 1.51 µM; in the assay with K-562 leukemia it was 3.61 µM; in the assay on SF-539 CNS it was 2.49 µM. Moreover, the figures for the TGI with UACC-257 melanoma and with CCRF-CEM leukemia were 1.95 µM and 2.97 µM, respectively.
Turning to `O=C(O)C1C2C=CC(C2)C1C(=O)O` (stereo unspecified), the GI50 in the assay on SR leukemia, in the assay on HCC-2998 colon, in the assay on SK-MEL-5 melanoma, in the assay on SW-620 colon, in the assay with K-562 leukemia and in the assay with SF-539 CNS was greater than 100 µM throughout. For the same compound, the GI50 in the assay on UACC-257 melanoma and in the assay on CCRF-CEM leukemia was greater than 100 µM each time. Further, the total growth inhibition concentration (TGI) in the assay with SR leukemia, in the assay on HCC-2998 colon, with SK-MEL-5 melanoma, in the assay on SW-620 colon, with K-562 leukemia and in the assay on SF-539 CNS was greater than 100 µM each time. The total growth inhibition concentration (TGI) in the assay on UACC-257 melanoma and in the assay on CCRF-CEM leukemia was greater than 100 µM throughout.
Consider `CN1CC[C@]2(c3cccc(O)c3)CC(=O)/C(=C/c3ccccc3)[C@H]1C2`, for which the GI50 in the assay with SR leukemia is 1.35 µM; in the assay on HCC-2998 colon it was 3.11 µM; in the assay with UACC-257 melanoma it was 2.6 µM; in the assay on CCRF-CEM leukemia, 2.53 µM. The TGI is 5.9 µM with SR leukemia; 9.99 µM with HCC-2998 colon; 9.35 µM in the assay on SK-MEL-5 melanoma; 11.9 µM in the assay on SW-620 colon; 17.7 µM with K-562 leukemia; 5.2 µM in the assay on SF-539 CNS. Further, the TGI with UACC-257 melanoma stood at 9.72 µM; in the assay on CCRF-CEM leukemia, 9.36 µM.
Consider `CC[C@@H](C(=O)[C@H](C)[C@H](O)[C@@H](C)[C@H]1O[C@H]([C@@H](CC)C(=O)O)CC[C@H]1C)C1O[C@]2(C=C[C@@H](O)[C@]3(CC[C@@](C)([C@H]4CC[C@](O)(CC)[C@H](C)O4)O3)O2)[C@H](C)C[C@@H]1C` (stereo partly specified), for which the GI50 was 0.0827 µM in the assay on SR leukemia; 0.178 µM in the assay with HCC-2998 colon; 0.102 µM in the assay on SK-MEL-5 melanoma; 0.966 µM in the assay with SW-620 colon; 0.223 µM in the assay with K-562 leukemia; 0.328 µM in the assay on SF-539 CNS. The concentration for 50% growth inhibition (GI50) was 0.23 µM in the assay with UACC-257 melanoma and 0.283 µM with CCRF-CEM leukemia. Besides, the TGI in the assay on SR leukemia stood at 5.73 µM; in the assay with HCC-2998 colon it was 11.9 µM; in the assay on SK-MEL-5 melanoma, 0.274 µM; with SW-620 colon, 10.7 µM; in the assay on K-562 leukemia it was 7.06 µM; in the assay with SF-539 CNS it was 4.05 µM. Besides, the concentration for total growth inhibition (TGI) worked out at 6.98 µM in the assay with UACC-257 melanoma and 12.3 µM with CCRF-CEM leukemia.
In the case of `NS(=O)(=O)c1ccc(NCc2cnc3ccccc3n2)cc1`, the TGI in the assay with SR leukemia, in the assay on HCC-2998 colon, in the assay on SK-MEL-5 melanoma, in the assay with SW-620 colon, with K-562 leukemia and in the assay on SF-539 CNS was greater than 100 µM throughout. Besides, the concentration for total growth inhibition (TGI) with UACC-257 melanoma and in the assay on CCRF-CEM leukemia was greater than 100 µM throughout.
